# How the values were obtained:
# [1] = target: T1, vasopressin 1a receptor (V1aR) (Homo sapiens, UniProt P37288); assay: Competition radioligand binding, [3H]-vasopressin, V1aR-expressing HEK293 membranes; conditions: [3H]-vasopressin 2 nM, 90 min 4 °C
# T1 construct: expressed in transfected cells
# Protocol: (§1) Human embryonic kidney cells (HEK-293) transfected to stably express untagged hOTR and V1aR using the Flp-In™ T-REx™ system (Life Technologies, Carlsbad, Calif. USA) were established as reported in Jorgensen et al., 2016 (the entire disclosure of which is hereby incorporated by reference). Cells were subsequently maintained in 10% DMEM containing hygromycin (80 μg/ml), penicillin (100 U/ml), streptomycin (0.1 mg/ml) and blasticidine S hydrochloride (15 μg/ml).
# (§2) To induce receptor expression, cells were incubated with tetracycline (2 μg/mL) for 48 h. PBS with 5 mM EDTA (pH 7.4) was used to detach OTR and V1aR-expressing HEK293 cells from culture flasks. Harvested cells were centrifuged at 1200 g for 5 min and were resuspended in homogenization buffer (50 mM HEPES, 5 mM EDTA, 5 mM MgCl2; pH 7.4) prior to homogenization using an Ultra-Turrax homogeniser (IKA, Wilmington, N.C., USA). Homogenates were centrifuged three times for 30 min at 48.000 g, 4° C. for 30 min and membrane pellets resuspended in 50 mM Tris HCl, 5 mM MgCl2 (pH 7.4). A bicinchoninic acid assay was used according to the manufacturer's protocol (Bio-Rad, Hercules. Calif., USA) to measure final protein concentration. Membranes were stored at −80° C. until use in competition radioligand binding studies.
# (§3) Reactions were incubated for 90 min at 4° C. to reach equilibrium, and terminated by rapid filtration over glass fibre filters (Whatman GF/A […]; Millipore, Darmstadt, Germany), and washing with ice-cold reaction buffer. Filters were dried, then incubated with Microscint 0 (Perkin Elmer) for 30 min before radioactivity was detected with a Microbeta2 2450 microplate-reader (Perkin Elmer). […] Specific binding in the presence of compounds was expressed as a percentage of specific binding in the presence of vehicle control. A sum-of-squares F-test was used to compare the goodness of fit of one-site, two-site and sigmoidal with variable hill slope binding models, and to calculate Ki's using Graphpad Prism (Graphpad Software, La Jolla, Calif., USA).
# [2] = target: T2, oxytocin receptor (OXTR), hOTR (Homo sapiens, UniProt P30559); assay: IP1 accumulation assay, OTR-expressing HEK-293 cells (agonist and antagonist assessment); assay type: cell-based; conditions: for EC50 / EC50 (OXTR agonist potency, mean ± s.d.): agonist assessment; for EC50: IP1, 1 h; for IC50: antagonist assessment vs OT 30 nM (~EC70); for IC50 / EC50 (OXTR agonist potency, mean ± s.d.): IP1; for OV function: ratio of OXTR functional potency to V1aR functional potency, 'OT only' = function at OXTR only; for Emax: HEK293, read-out: OXTR Emax (% OXT)
# T2 construct: expressed in transfected cells
# T2 sequence (P30559 1-389): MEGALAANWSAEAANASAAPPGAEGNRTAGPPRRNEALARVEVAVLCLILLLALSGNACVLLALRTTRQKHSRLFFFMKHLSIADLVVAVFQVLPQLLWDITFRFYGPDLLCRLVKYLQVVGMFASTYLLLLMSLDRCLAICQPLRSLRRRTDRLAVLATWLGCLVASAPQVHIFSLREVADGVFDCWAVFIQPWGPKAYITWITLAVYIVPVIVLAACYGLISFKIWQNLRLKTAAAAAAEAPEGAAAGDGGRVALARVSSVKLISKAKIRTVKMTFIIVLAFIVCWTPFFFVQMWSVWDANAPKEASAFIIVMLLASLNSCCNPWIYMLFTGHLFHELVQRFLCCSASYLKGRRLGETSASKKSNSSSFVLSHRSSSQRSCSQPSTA
# Protocol: as §1
# (§4) OTR or V1aR-expressing HEK-293 cells were seeded onto poly-L-lysine (100 μg/ml)-coated 384-well plates at a density of 8.75×10^3 cells per well. Cells were incubated in tetracycline (2 μg/mL) for 48 h to induce receptor expression. Intracellular IP1 levels induced by activation of the Gq protein coupled to the OTR and V1aR was indexed using the HTRF IP-One kit (CisBio International, Bedford, Mass., USA), according to manufacturer's protocol. For agonist assessment, cells were incubated with logarithmically-spaced concentrations of compounds (1 nM-100 μM) for 1 h prior to the addition of Ab-Cryptate and IP1-d2 for 1 h. The contents of each well were transferred to a white-walled proxy plate (Perkin Elmer) and fluorescence read using a Pherastar Microplate reader (BMG Labtech, Cary, N.C., USA). For antagonist assessment, cells were incubated an ˜EC70 concentration of OT (30 nM) or AVP (25 nM) mixed with compounds (1 nM-100 μM) or vehicle control for 1 h. IP1 levels in the presence of compounds and OT or AVP were expressed as a percentage of levels seen with OT or AVP in the presence of vehicle control. Concentration response curves for OT and AVP were determined after 5 min incubation in drug or vehicle, and the data fitted using GraphPad PRISM to a 4-parameter logistic equation of the form y=Min+(Max−Min)/(1+10^((logEC50−X)*n)) where X is drug concentration and n is the H-ill slope. Data represent the mean±s.d. of at least 3 independent experiments, each in duplicate.
# [3] = target: T2, oxytocin receptor (OXTR), hOTR; assay: Competition radioligand binding, [3H]-oxytocin, OTR-expressing HEK293 membranes; conditions: [3H]-oxytocin 10 nM, 90 min 4 °C
# Protocol: as §1, §2, §3
# [4] = target: T1, vasopressin 1a receptor (V1aR); assay: IP1 accumulation assay, V1aR-expressing HEK-293 cells (agonist and antagonist assessment); assay type: cell-based; conditions: for EC50: agonist assessment, IP1, 1 h; for IC50: antagonist assessment vs AVP 25 nM (~EC70), IP1
# Protocol: Cells were subsequently maintained in 10% DMEM containing hygromycin (80 μg/ml), penicillin (100 U/ml), streptomycin (0.1 mg/ml) and blasticidine S hydrochloride (15 μg/ml).
# as §4, with “Cells” for “OTR or V1aR-expressing HEK-293 cells were seeded onto poly-L-lysine (100 μg/ml)-coated 384-well plates at a density of 8.75×10^3 cells per well. Cells”, “For antagonist assessment, cells were incubated an ˜EC70 concentration of OT (30 nM) or AVP (25 nM) mixed with compounds (1 nM-100 μM) or vehicle control for 1 h.” left out
# T1 sequence (P37288 whole entry): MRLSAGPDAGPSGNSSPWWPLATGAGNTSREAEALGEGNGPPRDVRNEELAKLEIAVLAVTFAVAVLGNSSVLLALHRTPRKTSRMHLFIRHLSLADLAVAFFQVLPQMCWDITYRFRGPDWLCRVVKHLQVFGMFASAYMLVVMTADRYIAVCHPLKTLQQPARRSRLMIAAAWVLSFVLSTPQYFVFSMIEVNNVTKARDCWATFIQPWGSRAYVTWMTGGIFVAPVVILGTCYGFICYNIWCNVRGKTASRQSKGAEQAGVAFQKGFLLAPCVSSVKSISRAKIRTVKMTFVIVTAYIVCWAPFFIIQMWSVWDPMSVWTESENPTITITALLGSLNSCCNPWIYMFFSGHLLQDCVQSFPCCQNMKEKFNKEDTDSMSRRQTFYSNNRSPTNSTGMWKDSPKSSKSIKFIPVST
Compound,Ki [1] [µM],EC50 [2] [µM],IC50 [2] [µM],OV function [2],melting point,Ki [3] [µM],EC50 [4] [µM],IC50 [4] [µM],Emax [2] [%],"EC50 (OXTR agonist potency, mean ± s.d.) [2] [µM]"
"Cn1ncc2c1Nc1ccccc1N(C(=O)C1CC1)C2 [CA3 (KA), cyclopropyl(1-methyl-4,10-dihydrobenzo[b]pyrazolo[3,4-e][1,4]diazepin-5 (1H)-yl)methanone]",3.37 ± 0.74,> 10,> 10,–,207 to 209 °C,> 10,> 10,> 10,–,–
"Cn1ncc2c1Nc1ccccc1N(C(=O)C1CCCC1)C2 [CAS (KA), cyclopentyl(1-methyl-4,10-dihydrobenzo[b]pyrazolo[3,4-e][1,4]diazepin-5 (1H)-yl)methanone]",0.553 ± 0.067,3.39 ± 0.448,–,<0.33,> 300 °C,> 10,> 10,> 10,10,–
"COc1cc(CN2Cc3cnn(C)c3Nc3ccccc32)cc(OC)c1 [WJ0625, 5-(3,5-Dimethoxybenzyl)-1-methyl-1,4,5,10-tetrahydrobenzo[b]pyrazolo[3,4-e][1,4]diazepine]",> 10,> 10,> 10,–,210 to 212 °C,> 10,> 10,> 10,–,–
"Cn1ncc2c1Nc1ccccc1N(Cc1cc(O)cc(O)c1)C2 [WJ0627, 5-((1-Methyl-4,10-dihydrobenzo[b]pyrazolo[3,4-e][1,4]diazepin-5(1H)-yl)methyl)benzene-1,3-diol]",> 10,> 10,> 10,–,236 to 238 °C,> 10,> 10,> 10,–,–
"Cn1ncc2c1Nc1ccccc1N(S(=O)(=O)c1ccc(Cl)cc1)C2 [WJ0633, 5-((4-Chlorophenyl)sulfonyl)-1-methyl-1,4,5,10-tetrahydrobenzo[b]pyrazolo[3,4-e][1,4]diazepine]",> 10,> 10,> 10,–,206 to 208 °C,> 10,> 10,> 10,–,–
"Cn1ncc2c1Nc1ccccc1N(S(=O)(=O)c1ccc(C(F)(F)F)cc1)C2 [WJ0639, 1-Methyl-5-((4-(trifluoromethyl)phenyl)sulfonyl)-1,4,5,10-tetrahydrobenzo[b]pyrazolo[3,4-e][1,4]diazepine]",> 10,> 10,> 10,–,203 to 205 °C,> 10,> 10,> 10,–,–
"Cc1ccc(S(=O)(=O)N2Cc3cnn(C)c3Nc3ccccc32)cc1 [WJ0641, 1-Methyl-5-tosyl-1,4,5,10-tetrahydrobenzo[b]pyrazolo[3,4-e][1,4]diazepine]",> 10,> 10,> 10,–,184 to 186 °C,> 10,> 10,> 10,–,–
"Cn1ncc2c1Nc1ccccc1N(C(=O)c1ccc(Cl)c(Cl)c1)C2 [WJ0824, (3,4-Dichlorophenyl)(1-methyl-4,10-dihydrobenzo[b]pyrazolo[3,4-e][1,4]diazepin-5 (1H)-yl)methanone]",0.455 ± 0.112,0.438 ± 0.127,–,–,–,1.62 ± 0.243,> 10,> 10,12.9,0.3218

# Stronger by Ki [1], values ahead:
Ki [1] [µM],EC50 [2] [µM],IC50 [2] [µM],OV function [2],melting point,Ki [3] [µM],EC50 [4] [µM],IC50 [4] [µM],Emax [2] [%],"EC50 (OXTR agonist potency, mean ± s.d.) [2] [µM]",Compound
0.035 ± 0.005,> 10,0.179,0.11,207 to 209 °C,0.176 ± 0.041,> 10,1.59 ± 0.486,–,–,"Cn1ncc2c1Nc1ccccc1N(C(=O)c1ccc(OCc3ccccc3)cc1)C2 [BzE, (4-(benzyloxy)phenyl)(1-methyl-4,10-dihydrobenzo[b]pyrazolo[3,4-e][1,4]diazepin-5 (1H)-yl)methanone]"
0.0046 ± 0.0013,> 10,1.76,8.59,> 300 °C,0.0926 ± 0.01,> 10,0.205 ± 0.0576,–,–,"Cn1ncc2c1Nc1ccccc1N(C(=O)c1cc(O)cc(O)c1)C2 [WJ0623, (3,5-Dihydroxyphenyl)(1-methyl-4,10-dihydrobenzo[b]pyrazolo[3,4-e][1,4]diazepin-5 (1H)-yl)methanone]"
0.0129 ± 0.0015,> 10,1.77,18.63,279 to 281 °C (dec.),0.316 ± 0.0792,> 10,0.0948 ± 0.0077,–,–,"COc1cc(OC)cc(C(=O)N2Cc3cnn(C)c3Nc3ccccc32)c1 [WJ0629, (3,5-Dimethoxyphenyl)(1-methyl-4,10-dihydrobenzo[b]pyrazolo[3,4-e][1,4]diazepin-5 (1H)-yl)methanone]"
0.0124 ± 0.0024,0.0853 ± 0.0265,–,0.12,265 °C (dec.),0.149 ± 0.0434,> 10,0.71 ± 0.267,9.54,0.2388 ± 0.0387,"Cc1ccc(C(=O)N2Cc3cnn(C)c3Nc3ccccc32)cc1 [WJ0653, (1-Methyl-4,10-dihydrobenzo[b]pyrazolo[3,4-e][1,4]diazepin-5 (1H)-yl)(p-tolyl)methanone]"
0.0447 ± 0.005,9.19 ± 1.62,–,<0.92,–,> 10,> 10,> 10,8,–,Cc1cc(C(=O)N2Cc3cnn(C)c3Nc3ccccc32)ccc1CN [WJ0761]

# Source: patent US11491165B2 (Kinoxis Therapeutics Pty Ltd, priority 2016, dated 2022)
